Test results: PubChem BioAssay AID1996
In brackets after ≈: the same amount, converted by molar mass.

conditions: buffer; pH 7.4; 200.0 µM

Compound | solubility kinetic [µg/mL]
CN(C)S(=O)(=O)c1ccc(Cl)c(NC(=O)CNC2(C)CCS(=O)(=O)C2)c1 (stereo not drawn) | > 63.6
CCN(CCO)c1ncnc2onc(-c3ccc(F)cc3)c12 | > 45.3
Cc1ccc(S(=O)(=O)NC(Cc2ccccc2)C(=O)O)cc1 (stereo not drawn) | > 47.9
CCc1ccnc(NC(=O)Nc2ccc(OCc3ccccc3)cc2)c1 | < 0.2
O=C1Cc2ccccc2C(c2c(Cl)cccc2Cl)N1 (stereo not drawn) | < 0.6
O=C1CC(NC(=O)c2ccc(Cl)cc2)C(=O)N1 (stereo not drawn) | > 37.9
Cc1cccc(NC(=O)CNC(=O)c2cccs2)n1 | > 41.3
COc1cc(S(=O)(=O)NCc2ccc3c(c2)OCO3)ccc1F | 14.8 (≈ 43.6 µM)
Cn1c(=O)oc2cc(S(=O)(=O)NCc3cccnc3)ccc21 | 30.5 (≈ 95.5 µM)
COc1cc(NC(=O)CN2C(=O)NC(CC(C)C)C2=O)cc(OC)c1OC (stereo not drawn) | > 56.9
COc1cc2c(cc1OC)C(NC(=O)C(F)(F)F)C/C2=N\O (stereo not drawn) | > 47.7
C=CCNC(=O)CN(Cc1ccccc1)S(=O)(=O)c1ccccc1 | > 51.7
CC(=O)c1ccc(Nc2nc(C)cc(C)n2)cc1 | 5.6 (≈ 23.2 µM)
CC(=O)OC(CC(=O)O)C[N+](C)(C)C.[Cl-] (stereo not drawn) | > 36
Cc1ccc(Nc2nc(Cl)nc(NC(C)(C)C)n2)cc1 | 3.8 (≈ 13 µM)
COc1cccc(C(=O)Nc2cccc(NC(=O)c3ccccc3Cl)c2)c1 | 7.4 (≈ 19.4 µM)
NS(=O)(=O)c1ccc(NC(=O)CNC(=O)c2ccc3c(c2)OCO3)cc1 | 10 (≈ 26.5 µM)
CC(=O)c1ccc(Nc2c([N+](=O)[O-])ccc3nonc23)cc1 | < 0.2
COc1cccc(-c2onc3ccc(C(C)=O)cc23)c1 | 2.9 (≈ 10.8 µM)
CC(C)(C)C(=O)OCc1nc(-c2ccc(F)cc2)cs1 | < 0.6
O=C(CCC(=O)Nc1ccccc1)N/N=C/c1ccncc1 | > 44.4
CCc1nnc(NC(=O)CSc2nnc3nc(C)cc(C)n23)s1 | > 52.4
CCNc1nc(NCC)nc(NC(N)=S)n1 | 9 (≈ 37.3 µM)
S=C(NCc1ccccc1)NCc1ccc(Cl)cc1 | 2.3 (≈ 7.91 µM)

Compound | solubility kinetic [µg/mL]
CC(C)(C)NCCOc1ccc2ccccc2c1 | 26.8 (≈ 110 µM)
C/C(=N\NC(=O)c1ccncc1)c1cccnc1 | > 36
O=c1oc2cc(Br)ccc2n1Cc1ccccc1 | < 0.7
O=C(OCC(=O)N1CCC(Cc2ccccc2)CC1)c1cc(Br)ccc1O | 6 (≈ 13.9 µM)
Cc1ccc(S(=O)(=O)N2CCN(C(=O)CN3C(=O)NC(C)(c4ccc(Cl)cc4)C3=O)CC2)c(C)c1 (stereo not drawn) | 3.3 (≈ 6.36 µM)
CCN(CC)c1ccc(N)cc1S(=O)(=O)Nc1ccccc1OC | 41.8 (≈ 120 µM)
COC(CNS(=O)(=O)c1cccc2nonc12)OC | > 43.1
Nc1nc(COc2ccccc2C=O)nc(Nc2ccccc2)n1 | 32.5 (≈ 101 µM)
COc1ccc(CCNC(=O)COC(=O)c2cc(S(=O)(=O)N3CCOCC3)ccc2C)cc1OC | > 76
CCC(C)(C)NC(=S)Nc1ccccc1C | > 35.5
COc1ccccc1C(=O)NC(=O)COC(=O)CNC(=O)c1ccccc1F | > 58.3
Cc1ccc(OCC(=O)Nc2ccccc2F)cc1 | 4.6 (≈ 17.7 µM)
O=C(O)CN1CCCCCC1=O | > 25.7
O=C(COc1ccc(C(=O)c2ccccc2)cc1)Nc1ncccc1O | 24.9 (≈ 71.5 µM)
O=C(CN1C(=O)NC(c2ccccc2)(c2ccccc2)C1=O)NCCc1ccc(F)cc1 | 7.6 (≈ 17.6 µM)
NS(=O)(=O)c1ccc(CNC(=O)Cc2cccs2)cc1 | 45.1 (≈ 145 µM)
CC12CN(C(=O)c3cccc([N+](=O)[O-])c3)C3(C#N)CC1CCC23C (stereo not drawn) | 45.3 (≈ 139 µM)
O=C(CCc1ccc(S(=O)(=O)N2CCOCC2)cc1)Nc1ccccc1F | > 58.9
COc1cccc(N/C=C/C(=O)c2ccc(OC)c(OC)c2)c1 | 2.3 (≈ 7.34 µM)
Brc1c(-c2ccccc2)nc2n1Cc1ccccc1-2 | 0.6 (≈ 1.93 µM)
COc1cc(OC)cc(C(=O)Nc2ccc(CN3CCCCC3)cc2)c1 | 49.2 (≈ 139 µM)
COc1ccc(N2CCc3c(C)nc4c(OC)cc(OC)cc4c32)cc1 | > 52.6
NC(=O)c1ccc(N=Cc2c(O)ccc3ccccc23)cc1 | 10.3 (≈ 35.5 µM)
O=C(CNC(=O)c1ccc2ccccc2c1)NC1CCCCC1 | 13 (≈ 41.9 µM)

Compound | solubility kinetic [µg/mL]
Cc1ccc(C)c(OCCC(=O)NCCc2ccc(F)cc2)c1 | 31.5 (≈ 99.9 µM)
CCOc1ccc(C2NC(=O)c3ccccc3O2)cc1OCC (stereo not drawn) | 13.8 (≈ 44 µM)
CCOc1ccc(C(=O)CCC(=O)Nc2ccncc2)cc1 | 42.9 (≈ 144 µM)
CC1CC(C)CN(C(=O)COC(=O)c2cc3ccccc3oc2=O)C1 (stereo not drawn) | > 51.5
CC(=O)N(c1cccc(C)c1)S(=O)(=O)c1ccc(Cl)cc1 | 32.7 (≈ 101 µM)
O=C(COc1ccccc1Cl)NCCNC(=O)c1cccnc1 | > 50.1
CN(CC(=O)Nc1cccc(F)c1)C(=O)c1cccc2ccccc12 | > 50.5
CCOC(=O)C1=C(C)OC(N)=C(C#N)C1c1cccs1 (stereo not drawn) | 17.1 (≈ 58.9 µM)
COc1ccc(-c2ccc(C(=O)O)o2)c([N+](=O)[O-])c1 | > 39.5
C=CCn1cnnc1SCC(=O)Nc1cccnc1Cl | > 46.5
CCOCCCNC(=O)c1cc2c(=O)n3ccccc3nc2s1 | 46.4 (≈ 140 µM)
Cl.Nc1nc(N2CCN(c3ccccn3)CC2)nc2ccccc12 | 54.8
CCOC(=O)c1c(N)sc(C(=O)N(CC)CC)c1C | > 42.7
COc1ccc(OCC(O)CNS(=O)(=O)c2cccc(Cl)c2)cc1 (stereo not drawn) | 51.4 (≈ 138 µM)
Cc1ccc(S(=O)(=O)N2CCOCC2)cc1C(=O)OCC(=O)NCCc1ccc(F)cc1 | 60.2 (≈ 130 µM)
C/C(=N\NC(=O)CCCNc1cccc(C)c1)c1ccncc1 | > 46.6
Cc1c(Cc2ccc3c(c2)OCO3)sc(NC(=O)C2CC2)c1C(N)=O | 1.8 (≈ 5.02 µM)
O=C1NC(c2ccccc2Cl)=N/C1=C/c1ccco1 | 8.5 (≈ 31.2 µM)
Cn1c(CNC(=O)c2ccc(F)cc2)cc2ccccc21 | 24.7 (≈ 87.5 µM)
COc1ccc(OCC(=O)Nc2cc(OC)ccc2N2CCCCC2)cc1 | < 0.4
CNC(=O)c1cc2c(cn1)[nH]c1ccccc12 | 27.5 (≈ 122 µM)
CCOc1ccc(NC(=S)N2CCCCCC2)cc1 | > 41.8
Cc1ccccc1NC1=NC(=S)N(CC(N)=O)C12CCOC(C)(C)C2 (stereo not drawn) | > 54.1
CC(CCc1ccccc1)NC(=O)CCC(=O)N1CCC(C(=O)O)CC1 (stereo not drawn) | > 54.1

Compound | solubility kinetic [µg/mL]
Cc1onc(-c2ccccc2)c1C(=O)NCC(=O)Nc1cc(Cl)ccc1Cl | 9.4 (≈ 23.3 µM)
O=C(CSc1nc2ccccc2c(=O)n1Cc1ccc(F)cc1)NCC1CCCO1 (stereo not drawn) | 4.1 (≈ 9.59 µM)
O=C(NCCCCc1ccccc1)Nc1ccc(F)cc1F | 0.3 (≈ 0.986 µM)
COC(=O)CCSC(=S)N1CCOCC1 | > 37.4
O=C(CSc1nccc(-c2cccs2)n1)Nc1ccc(Cl)cc1 | 1.4 (≈ 3.87 µM)
COC(=O)c1c(N)sc(C(=O)NCCc2ccccc2)c1C | > 47.8
Cc1ccc(-n2c(N)c(Br)c(=O)[nH]c2=O)cc1C | > 46.5
Cc1cc(Cl)ccc1NC(=O)Cn1cncn1 | > 37.6
COC(=O)c1ccc(COc2cc([N+](=O)[O-])cc3cccnc23)o1 | 3.3 (≈ 10.1 µM)
COc1ccc(NS(=O)(=O)c2ccc(C(=O)N3CCCCCC3)cc2)cc1 | > 58.3
CCCNC(=O)COC(=O)c1c2c(nc3ccccc13)CCC2 | 45.5 (≈ 146 µM)
COc1ccc(OC)c(CN2CCCC(C(=O)c3sccc3C)C2)c1 (stereo not drawn) | > 53.9
CC(C)N(Cc1nc(COc2ccccc2)no1)Cc1nccn1C | 48.2 (≈ 141 µM)
CNC(=S)Nc1ccc(N2CCCC2)c(S(=O)(=O)Nc2ccc(OC)cc2)c1 | 34.6 (≈ 82.3 µM)
O=C(NC1CC1)c1sc2cc(Cl)ccc2c1Cl | 1.2 (≈ 4.19 µM)
CC1CCC(NC(=O)CCNC(=O)c2ccccc2)CC1 (stereo not drawn) | > 43.3
CCC(C)NC(=O)c1c(N)n(CCCOC)c2nc3ccccc3nc12 (stereo not drawn) | 6.4 (≈ 18 µM)
CN(C(=O)c1ccc(Br)o1)C1CCCCC1 | 32.2 (≈ 113 µM)
N=C1C(c2nc3ccccc3[nH]2)=C(O)CN1C1CCCCC1 | 0.4 (≈ 1.35 µM)
O=C(Nc1ccc(Cl)cc1Cl)C1CCCO1 (stereo not drawn) | > 39
COc1ccc(CCNC2CC(=O)N(C3CCCCC3)C2=O)cc1OC (stereo not drawn) | 46.4 (≈ 129 µM)
Cc1ccc(OCc2ccc(C(=O)NN)o2)c([N+](=O)[O-])c1 | > 43.7
COc1ccc(C(=O)Nc2ccc3c(c2)OCCO3)cc1[N+](=O)[O-] | < 0.4
CCN(C(=O)CN1C(=O)c2ccc([N+](=O)[O-])cc2C1=O)C1CCCCC1 | > 53.9

Compound | solubility kinetic [µg/mL]
O=[N+]([O-])c1ccccc1/C=C/CN1CCCC(CO)C1 (stereo not drawn) | 33.2 (≈ 120 µM)
CC(=O)NC(CC(=O)NCc1ccncc1)c1ccccc1 (stereo not drawn) | > 44.6
O=C(O)CC(Cc1ccc(Cl)cc1)C(=O)Nc1cc(Cl)ccc1Cl (stereo not drawn) | 42.1 (≈ 109 µM)
COC(=O)c1ccc(S(=O)(=O)N2CCN(C)CC2)n1C | > 45.2
O=C(Cc1ccccc1Cl)Nc1nc2ccccc2[nH]1 | 2.6 (≈ 9.1 µM)
CN(C)C(=O)Oc1ccc2c(c1)O/C(=C\c1cccc(Cl)c1)C2=O | < 0.7
COC(=O)c1ccc(N2CCOCC2)c(NC(=O)c2ccco2)c1 | 2.8 (≈ 8.48 µM)
CCc1noc(C)c1C(=O)OCC(=O)NCc1ccc(Cl)cc1 | 8.4 (≈ 24.9 µM)
Cc1ccc(C(=O)NC2CC3CCC(C2)N3C)cc1 (stereo not drawn) | > 38.8
Cn1c(Br)nc2c1c(=O)n(Cc1ccccc1)c(=O)n2C | 46.1 (≈ 132 µM)
O=C(COC(=O)/C=C/c1ccccc1Cl)Nc1cccnc1Cl | 2.9 (≈ 8.26 µM)
CC(C)(C)CC(=O)O/N=C(\N)c1ccncc1 | > 35.3
O=C(Nc1ccc(Oc2cccc(C(F)(F)F)c2)nc1)c1ccco1 | 1.2 (≈ 3.45 µM)
COCCNC(=O)C(=O)Nc1ccc(Cl)cc1C | > 40.6
c1ccc2nc(-c3ccc(-n4ccnc4)cc3)ccc2c1 | 6.2 (≈ 22.9 µM)
O=C(c1ccccc1)N1CCN(C(=O)c2ccc3c(c2)OCO3)CC1 | > 50.8
Cc1ccccc1Nc1nc(N)nc(-c2oc3ccccc3c2C)n1 | 1 (≈ 3.02 µM)
CSc1ccc(Cl)c(C(=O)OCC(=O)N2CCNC2=O)c1 | > 49.3
COc1ccccc1OCC(=O)Nc1nc(C)c(C)s1 | > 43.9
COc1ccc2cc(-c3ccon3)ccc2c1 | < 0.5
N#Cc1ccc(C(=O)Nc2nc3ccccc3[nH]2)cc1 | 2.6 (≈ 9.91 µM)
O=c1c2ccccc2ncn1-c1ccc(Cl)cc1 | 8.7 (≈ 33.9 µM)
